The numbers were not newly measured in paper PMC9694494, “Resveratrol/Hydrazone Hybrids: Synthesis and Chemopreventive Activity against Colorectal Cancer Cells” (Pharmaceutics, 2022), which cites them from elsewhere.

The test system of one data set is EC109 cells. Details: method as in PMID 29475156. The conditions noted are these: EC109 esophageal carcinoma cells; read-out: IC50 antiproliferative activity; cited from earlier work.
The next data set concerns EC9706 cells. On the set-up: method as in PMID 29475156. The conditions noted are these: EC9706 esophageal carcinoma cells; read-out: IC50 antiproliferative activity; cited from earlier work.

SMILES strings stand for the structures.

In the case of `CCOc1cccc(/C=N/NC(=O)c2cccc(S(=O)(=O)N3CCOCC3)c2)c1O` [I], the results for the IC50 with EC109 cells and in the data set on EC9706 cells were 2790 ± 450 nM and 1090 ± 30 nM, respectively.
